Test results as given in US20030092760A1, “Therapeutic agent for renal failure” (Toray Industries, Inc., priority 2001, published 2003).

Experiments:
[1] = tested on: ⅚ nephrectomized rat model; assay: Effect on ⅚ nephrectomized rat model: renal functions; assay type: in vivo, Wistar rats
Procedure: The effect of beraprost sodium on a ⅚ nephrectomized rat model, which has been widely used as a model animal for renal failure, was examined. Two-thirds of the left kidney was removed from each of 4-week-old male Wistar rats (Charles River Japan Inc.) with a razor, and all of the right kidney was then removed therefrom one week after. Three weeks after the initial surgery, blood was collected from each rat through the tail vein and serum creatinine and BUN levels were determined from the blood. At this point of time, the urine was also collected for 24 hours to determine the mass of proteins in the urine. The rats were allocated to one of the treatment groups by the stratifying continuous randomization method based on the mass of proteins in the urine and the body weight (n=8 per group). […] Three weeks after the initial surgery, beraprost sodium or captopril (SIGMA, i.e., a positive control) was orally administered to each rat twice a day everyday, beginning the day on which administration of a drug was started and continued through five weeks after the administration. The determination of the renal functions was performed both three weeks and five weeks after the initial administration of a drug. The photographic images of the renal tissue were observed only five weeks after the initial administration.

[2] = tested on: glomerulonephritis model rats in inflammatory stage; assay: Glomerulonephritis model rats, inflammatory stage, oral administration; conditions: for Urinary total protein excretion: 7 days after induction (1 week after initial administration); for Increase in urinal total protein excretion (in words): day 1 through day 7 after induction
Procedure: (§1) Eight-week-old male WKY rats (Charles River Japan Inc.) were administered intravenously with rabbit anti-rat glomerular basement membrane antiserum to induce glomerulonephritis. […] The frequency of the administration was twice a day for beraprost sodium and captopril and once a day for prednisolone. After the initial administration of a drug, urinary total protein excretion (which is a measure of renal functions) was determined.

[3] = tested on: ⅚ nephrectomized rat model; assay: ⅚ nephrectomized rat model: observation of renal tissue images (histopathological change); assay type: in vivo, Wistar rats; conditions: for Framework: Infiltration of mononuclear cells / Renal corpuscle: Cellular filling in glomerulus / Renal corpuscle: Coagulation of glomeruli in Bowman's capsule / Renal corpuscle: Deposition of PAS + materials in Bowman's capsule / Renal corpuscle: Epidermal growth in Bowman's capsule / Renal corpuscle: Glomerular hypertrophy / Renal corpuscle: Glomerulosclerosis / Uriniferous tuble: Basophilic degeneration of tubules / Uriniferous tuble: Proliferation of proximal tubules / Uriniferous tuble: Proteinaceous urinary casts / Uriniferous tuble: Tubular dilation: number of animals with change in 8 animals per group, five weeks after initial administration
Procedure: The effect of beraprost sodium on a ⅚ nephrectomized rat model, which has been widely used as a model animal for renal failure, was examined. Two-thirds of the left kidney was removed from each of 4-week-old male Wistar rats (Charles River Japan Inc.) with a razor, and all of the right kidney was then removed therefrom one week after. Three weeks after the initial surgery, blood was collected from each rat through the tail vein and serum creatinine and BUN levels were determined from the blood. At this point of time, the urine was also collected for 24 hours to determine the mass of proteins in the urine. The rats were allocated to one of the treatment groups by the stratifying continuous randomization method based on the mass of proteins in the urine and the body weight (n=8 per group). There was observed little difference in the initial values of blood creatinine and BUN values among the rats. Three weeks after the initial surgery, beraprost sodium or captopril (SIGMA, i.e., a positive control) was orally administered to each rat twice a day everyday, beginning the day on which administration of a drug was started and continued through five weeks after the administration. The determination of the renal functions was performed both three weeks and five weeks after the initial administration of a drug. The photographic images of the renal tissue were observed only five weeks after the initial administration. […] Five weeks after the initial administration, more exacerbation of chronic renal failure was observed. […] The same tendency was shown five weeks after the initial administration (Table 2).

[4] = tested on: glomerulonephritis model rats in renal failure stage; assay: Glomerulonephritis model rats, renal failure stage, oral administration; conditions: for Increase in urinal total protein excretion (in words): renal failure stage, two weeks through four weeks after induction
Procedure: as §1

[5] = tested on: renal failure rat models of which the primary disease is glomerulonephritis; assay: Renal failure rat models of which the primary disease is glomerulonephritis, subcutaneous osmotic pump; assay type: in vivo, WKY rats
Description: Renal failure rat models of which the primary disease was glomerulonephritis were used to examine the effect of different 4,8-inter-m-phenylene prostaglandin I2 derivatives including beraprost sodium on the models. […] Two weeks after the induction, blood was collected from each rat through the tail vein to determine blood creatinine and BUN levels. […] Four types of 4,8-inter-m-phenylene prostaglandin I2 derivatives in total, including beraprost sodium, were individually administered subcutaneously to the rats from the back continuously with an osmotic pump (ALZET) for one week, beginning two weeks after induction of glomerulonephritis and continued through three weeks after the induction. The renal functions (i.e., blood creatinine and BUN levels) were determined one week after the initial administration of a drug.

[6] = 100 μg/kg oral twice a day, five weeks after the administration of a drug
[7] = 100 μg/kg oral twice a day, three weeks after the administration of a drug
[8] = 300 μg/kg oral twice a day, five weeks after the administration of a drug
[9] = 300 μg/kg oral twice a day, three weeks after the administration of a drug
[10] = 60 μg/kg group, 2 weeks after induction (before administration)
[11] = 60 μg/kg s.c. osmotic pump, 3 weeks after induction (1 week after the initial administration)
[12] = 200 μg/kg group, 2 weeks after induction (before administration)
[13] = 200 μg/kg s.c. osmotic pump, 3 weeks after induction (1 week after the initial administration)
[14] = 50 mg/kg oral twice a day, five weeks after the administration of a drug
[15] = 50 mg/kg oral twice a day, three weeks after the administration of a drug
[16] = Table 5, 60 μg/kg group, 2 weeks after induction (before administration)
[17] = Table 5, 60 μg/kg s.c. osmotic pump, 3 weeks after induction (1 week after the initial administration)

## CC#CCC(C)[C@H](O)/C=C/C1[C@H](O)C[C@@H]2Oc3c(CCCC(=O)[O-])cccc3[C@H]12.[Na+] (mixture of isomers) [Beraprost sodium, beraprost sodium]
[1]; [6]
  Blood urea nitrogen: 45.5 ± 3.3 mg/dL
  Creatinine clearance: 156.9 ± 19.5 μl/min/100 gBW
  Urinary protein excretion: 276.5 ± 69.2 mg/24 hr/kgBW
  Urinary volume: 21.7 ± 3.1 ml/24 hr
[1]; [7]
  Blood urea nitrogen: 55.9 ± 3.7 mg/dL
  Creatinine clearance: 134.1 ± 11.0 μl/min/100 gBW
  Urinary protein excretion: 125.3 ± 20.8 mg/24 hr/kgBW
  Urinary volume: 20.1 ± 2.8 ml/24 hr
[1]; [8]
  Blood urea nitrogen: 45.1 ± 3.5 mg/dL
  Creatinine clearance: 143.5 ± 10.0 μl/min/100 gBW
  Urinary protein excretion: 197.1 ± 21.1 mg/24 hr/kgBW
  Urinary volume: 20.4 ± 1.7 ml/24 hr
[1]; [9]
  Blood urea nitrogen: 50.9 ± 3.6 mg/dL
  Creatinine clearance: 136.4 ± 9.9 μl/min/100 gBW
  Urinary protein excretion: 154.4 ± 53.0 mg/24 hr/kgBW
  Urinary volume: 20.4 ± 3.7 ml/24 hr
[1]; three weeks after the initial administration, same tendency five weeks after
  Effect on urinary protein level, creatinine clearance and BUN level (in words): significant prevention of increase in the urinary protein level and prevention of reduction in the creatinine clearance and increase in the BUN level
[2]; 300 μg/kg oral twice a day
  Urinary total protein excretion: 17 ± 7 mg/24 hr
[2]
  Increase in urinal total protein excretion (in words): markedly prevented
[3]; 100 μg/kg
  Framework: Infiltration of mononuclear cells: 7
  Renal corpuscle: Cellular filling in glomerulus: 7
  Renal corpuscle: Coagulation of glomeruli in Bowman's capsule: 2
  Renal corpuscle: Deposition of PAS + materials in Bowman's capsule: 2
  Renal corpuscle: Epidermal growth in Bowman's capsule: 1
  Renal corpuscle: Glomerular hypertrophy: 3
  Renal corpuscle: Glomerulosclerosis: 2
  Uriniferous tuble: Basophilic degeneration of tubules: 8
  Uriniferous tuble: Proliferation of proximal tubules: 8
  Uriniferous tuble: Proteinaceous urinary casts: 5
  Uriniferous tuble: Tubular dilation: 8
[3]; 300 μg/kg
  Framework: Infiltration of mononuclear cells: 7
  Renal corpuscle: Cellular filling in glomerulus: 4
  Renal corpuscle: Coagulation of glomeruli in Bowman's capsule: 1
  Renal corpuscle: Deposition of PAS + materials in Bowman's capsule: 1
  Renal corpuscle: Epidermal growth in Bowman's capsule: 1
  Renal corpuscle: Glomerular hypertrophy: 2
  Renal corpuscle: Glomerulosclerosis: 1
  Uriniferous tuble: Basophilic degeneration of tubules: 8
  Uriniferous tuble: Proliferation of proximal tubules: 8
  Uriniferous tuble: Proteinaceous urinary casts: 2
  Uriniferous tuble: Tubular dilation: 8
[3]; five weeks after the initial administration
  Progress of the glomerular conditions (renal tissue images, in words): markedly prevented
[4]; 300 μg/kg group, renal failure stage Exp. 1, 2 weeks after induction (before administration)
  Urinary total protein excretion: 374 ± 21 mg/24 hr
[4]; 300 μg/kg group, renal failure stage Exp. 2, 2 weeks after induction (before administration)
  Urinary total protein excretion: 321 ± 23 mg/24 hr
[4]; 300 μg/kg oral twice a day, renal failure stage Exp. 1, 3 weeks after induction (1 week after initial administration)
  Urinary total protein excretion: 300 ± 51 mg/24 hr
[4]; 300 μg/kg oral twice a day, renal failure stage Exp. 2, 4 weeks after induction (2 week after initial administration)
  Urinary total protein excretion: 295 ± 46 mg/24 hr
[4]
  Increase in urinal total protein excretion (in words): markedly prevented
[5]; [10]
  BUN: 28 ± 3 mg/dL
  Blood creatinine: 0.61 ± 0.07 mg/dL
[5]; [11]
  BUN: 31 ± 2 mg/dL
  Blood creatinine: 0.48 ± 0.04 mg/dL
[5]; [12]
  BUN: 30 ± 3 mg/dL
  Blood creatinine: 0.62 ± 0.06 mg/dL
[5]; [13]
  BUN: 25 ± 1 mg/dL
  Blood creatinine: 0.49 ± 0.04 mg/dL
[5]; three weeks after the induction of glomerulonephritis
  Blood creatinine and BUN levels compared with the control group (in words): significantly decreased

## C[C@H](CS)C(=O)N1CCC[C@H]1C(=O)O [Captopril, captopril, reference compound]
[1]; [14]
  Blood urea nitrogen: 47.8 ± 5.2 mg/dL
  Urinary protein excretion: 255.5 ± 76.6 mg/24 hr/kgBW
[1]; [15]
  Blood urea nitrogen: 51.4 ± 3.7 mg/dL
  Urinary protein excretion: 136.8 ± 29.9 mg/24 hr/kgBW
[2]; 50 mg/kg oral twice a day
  Urinary total protein excretion: 75 ± 14 mg/24 hr
[2]
  Increase in urinal total protein excretion (in words): effective prevention
[3]; 50 μg/kg
  Framework: Infiltration of mononuclear cells: 7
  Renal corpuscle: Cellular filling in glomerulus: 4
  Renal corpuscle: Coagulation of glomeruli in Bowman's capsule: 2
  Renal corpuscle: Deposition of PAS + materials in Bowman's capsule: 1
  Renal corpuscle: Epidermal growth in Bowman's capsule: 2
  Renal corpuscle: Glomerular hypertrophy: 1
  Renal corpuscle: Glomerulosclerosis: 2
  Uriniferous tuble: Basophilic degeneration of tubules: 6
  Uriniferous tuble: Proliferation of proximal tubules: 8
  Uriniferous tuble: Proteinaceous urinary casts: 4
  Uriniferous tuble: Tubular dilation: 8
[4]; 50 mg/kg group, renal failure stage Exp. 2, 2 weeks after induction (before administration)
  Urinary total protein excretion: 318 ± 22 mg/24 hr
[4]; 50 mg/kg oral twice a day, renal failure stage Exp. 2, 4 weeks after induction (2 week after initial administration)
  Urinary total protein excretion: 504 ± 51 mg/24 hr
[4]; 100 mg/kg group, renal failure stage Exp. 2, 2 weeks after induction (before administration)
  Urinary total protein excretion: 325 ± 6 mg/24 hr
[4]; 100 mg/kg oral twice a day, renal failure stage Exp. 2, 4 weeks after induction (2 week after initial administration)
  Urinary total protein excretion: 517 ± 33 mg/24 hr
[4]
  Increase in urinal total protein excretion (in words): no effective prevention

## O=C([O-])CCCc1cccc2c1OC1CC(O)C(C#CC(O)C3CCCCC3)C21.[Na+] (centres unmarked) [Compound 1]
[5]; [16]
  BUN: 29 ± 2 mg/dL
  Blood creatinine: 0.44 ± 0.05 mg/dL
[5]; [17]
  BUN: 27 ± 2 mg/dL
  Blood creatinine: 0.41 ± 0.02 mg/dL

## O=C([O-])/C=C/Cc1cccc2c1OC1CC(O)C(/C=C/C(O)c3ccccc3)C21.[Na+] (centres unmarked) [Compound 2]
[5]; [16]
  BUN: 28 ± 2 mg/dL
  Blood creatinine: 0.45 ± 0.04 mg/dL
[5]; [17]
  BUN: 31 ± 3 mg/dL
  Blood creatinine: 0.44 ± 0.05 mg/dL

## O=C([O-])CCCc1cccc2c1OC1CC(O)C(/C=C/C(O)c3ccccc3)C21.[Na+] (centres unmarked) [Compound 3]
[5]; [16]
  BUN: 28 ± 3 mg/dL
  Blood creatinine: 0.45 ± 0.05 mg/dL
[5]; [17]
  BUN: 30 ± 3 mg/dL
  Blood creatinine: 0.39 ± 0.04 mg/dL

## C[C@]12C=CC(=O)C=C1CC[C@@H]1[C@@H]2[C@@H](O)C[C@@]2(C)[C@H]1CC[C@]2(O)C(=O)CO [Prednisolone, prednisolone]
[2]; 2 mg/kg oral once a day
  Urinary total protein excretion: 38 ± 8 mg/24 hr
[2]
  Increase in urinal total protein excretion (in words): effective prevention
[4]; 2 mg/kg group, renal failure stage Exp. 1, 2 weeks after induction (before administration)
  Urinary total protein excretion: 368 ± 20 mg/24 hr
[4]; 2 mg/kg oral once a day, renal failure stage Exp. 1, 3 weeks after induction (1 week after initial administration)
  Urinary total protein excretion: 456 ± 78 mg/24 hr
[4]
  Increase in urinal total protein excretion (in words): no effective prevention
